In US6417225B1, “Prophylactic/therapeutic agents for atherosclerosis” (Chugai Seiyaku Kabushiki Kaisha, priority 1997, dated 2002):

Tests used:
[1] = test system: LDL receptor-deficient mice; experiment: Effect on atherosclerosis in an in vivo atherosclerosis model (2): LDL receptor-deficient mice; conditions: for Inhibitory effect on arteriosclerosis (in words): LDL receptor-deficient mice; for Area of Arteriosclerotic lesions (mm^2): 0.5% in high-fat diet, 13 weeks, arcus aorta
Text: Effect on Atherosclerosis in an in vivo Atherosclerosis Model (2)
In order to evaluate the inhibitory effect of the compound of Example 1 on atherosclerosis in an in vivo atherosclerosis, LDL receptor-deficient mice were used.
One of the remaining two groups similarly received a high-fat diet containing neither probucol nor the compound of Example 1 and was used as a control and the other one group similarly received a normal, chow diet containing neither probucol nor the compound of Example 1.
(§1) After administration of the compound for 13 weeks, the arcus aorta was removed from each of the animals, transversely sectioned and stained with Sudan IV. The area of arteriosclerotic lesions was determined by an image analysis under an optical microscope. The average of the area of arteriosclerotic lesions in the aucus aortae was calculated for each animal. The number of animals used for the evaluation was 5 for the normal chow diet group consisting of female mice and 7-9 for the other groups.

[2] = test system: Watanabe Heritable Hyperlipidemic (WHHL) rabbits; experiment: Effect on atherosclerosis in an in vivo atherosclerosis model (1): WHHL rabbits; parameters: species or system rabbit; conditions: for Lesions in arch section (%) / Lesions in the whole aorta (%): 6 months
Text: Effect on Atherosclerosis in an in vivo Atherosclerosis Model (1)
In order to evaluate the inhibitory effect of the compound of Example 1 on atherosclerosis in an in vivo atherosclerosis model, Watanabe Heritable Hyperlipidemic (WHHL) rabbits were used.
Specifically, 4 groups of 4 or 5 WHHL rabbits (Kbl: 2 to 3-month-old male) were conditioned for a week, and then 3 groups of them received 1% probucol and 0.2% and 0.5% Example 1 compound contained in a normal chow diet, respectively, by limited feeding (40 g/kg) once a day for 6 months. The other one group similarly received the normal chow diet containing neither probucol nor the compound of Example 1 and was used as a control.
After administration of the compound for 6 months, the aorta was removed from each of the animals and visualized to prepare a photograph of the inside of the aortic sample. White fat deposition area which represents arteriosclerotic lesions was determined by the image analysis on the photograph for each of three parts of the aortic sample (arch, chest and abdomen). From the results, the proportions (percentage) of the fat deposition area to the overall area for the arch section and the whole aorta were obtained. Four or five animals were used for each group for the evaluation.

[3] = test system: LDL receptor/apolipoprotein E double hetero-deficient mice; experiment: Effect on atherosclerosis in an in vivo atherosclerosis model (3): LDL receptor/Apo E hetero-deficient mice; conditions: for Inhibitory effect on arteriosclerosis (in words): LDL receptor/Apo E hetero-deficient mice; for Area of Arteriosclerotic lesions (mm^2): female mice, 0.5% in high-fat diet, 6 months, arcus aorta
Text: Effect on Atherosclerosis in an in vivo Atherosclerosis Model (3)
In order to evaluate the inhibitory effect of the compound of Example 1 on atherosclerosis in an in vivo atherosclerosis model, LDL receptor/apolipoprotein E double hetero-deficient (LDL receptor/Apo E hetero-deficient) mice were used.
One of the remaining two groups similarly received a high-fat feed containing neither probucol nor the compound of Example 1 and was used as a control and the other one group similarly received a normal, chow diet containing neither probucol nor the compound of Example 1.
as §1, with “6 months,” for “13 weeks,”, “2” for “5”, “feed” for “chow diet”, “group” for “group consisting of female mice”, “5-6” for “7-9”

[4] = test system: LDL receptor-deficient mice; experiment: Effect on formation of xanthoma in an in vivo xanthoma model; conditions: for Inhibitory effect on formation of xanthomas (in words): LDL receptor-deficient mice; for Xanthoma score: 0.5% in high-fat diet, 13 weeks, forefeet and palpebrae, total score
Text: Effect on Formation of Xanthoma in an in vivo Xanthoma Model
In order to evaluate the inhibitory effect of the compound of Example 1 on xanthoma in an in vivo xanthoma model, LDL receptor-deficient mice were used.
One of the remaining two groups similarly received a high-fat feed containing neither probucol nor the compound of Example 1 and was used as a control and the other one group similarly received a normal, chow diet feed containing neither probucol nor the compound of Example 1.
After administration of the compound for 13 weeks, xanthomas were scored in both forefeet and palpebrae based on the appearance thereof and the scores were totalized. The number of animals used for the evaluation was 5 for the normal feed group consisting of female mice and 7-9 for the other groups.

femoral atheroscleroses = conditions: literature report; cited from earlier work

Row | Structure (SMILES) | Inhibitory effect on arteriosclerosis (in words) [1] | Area of Arteriosclerotic lesions (mm^2) ([1]; female mice) | Area of Arteriosclerotic lesions (mm^2) ([1]; male mice) | Inhibitory effect on atherosclerosis (in words) [2] | Lesions in arch section (%) ([2]; 0.2% in normal chow diet) | Lesions in the whole aorta (%) ([2]; 0.2% in normal chow diet) | Lesions in arch section (%) ([2]; 0.5% in normal chow diet) | Lesions in the whole aorta (%) ([2]; 0.5% in normal chow diet) | Atherosclerosis inhibitory effect compared with probucol (in words) ([2]; at a half of the dosage of probucol) | Inhibitory effect on arteriosclerosis (in words) [3] | Area of Arteriosclerotic lesions (mm^2) [3] | Inhibitory effect on formation of xanthomas (in words) [4] | Xanthoma score ([4]; female mice) | Xanthoma score ([4]; male mice) | Lesions in the whole aorta (%) ([2]; 1% in normal chow diet) | Lesions in arch section (%) ([2]; 1% in normal chow diet, fat deposition area / overall area) | Therapeutic effect on atherosclerosis in clinical tests (in words) (femoral atheroscleroses)
1 | CCCCCC1(CCCCC)Cc2c(cc(C(C)(C)C)c(O)c2C(C)(C)C)O1 [Example 1, 4,6-di-t-butyl-2,2-di-n-pentyl-5-hydroxy-2,3-dihydrobenzofuran] | exhibits an inhibitory effect | 0.192 mm^2 | 0.185 mm^2 | strong inhibitory effect | 65.7 ± 3.7% | 44.3 ± 6.8 % | 52.6 ± 7.4 % | 37.4 ± 5.7 % | comparable to that of probucol | strong inhibitory effect | 0.150 mm^2 | strong inhibitory effect | 1.25 ± 0.25 | 0.29 ± 0.20 | – | – | –
2 | CC(C)(Sc1cc(C(C)(C)C)c(O)c(C(C)(C)C)c1)Sc1cc(C(C)(C)C)c(O)c(C(C)(C)C)c1 [Probucol, probucol, reference compound] | not observed | 0.245 mm^2 | 0.376 mm^2 | – | – | – | – | – | – | not observed | 0.451 mm^2 | not observed | 3.43 ± 0.30 | 3.13 ± 0.30 | 25.2 ± 2.6 % | 53.9 ± 5.6 % | no therapeutic effect
